Measured values taken from patent publication US20060009519A1, “Antifeeding method against insects” (SUMITOMO CHEMICAL COMPANY, LIMITED, priority 2004, published 2006).

Legend:
[1] = tested on: termites (Coptotermes formosanus, workers); assay: Termite antifeeding test on treated filter paper (Test Example 2); type: in vivo; conditions: 10 mg of test compound on filter paper (33 mm in diameter); fifty termites; one week; tests repeated three times
Protocol: An acetone solution (1 ml) containing 10 mg of the test compound was dropped on filter paper (33 mm in diameter, Milk sediment disk 1026 produced by Toyo Roshi K.K.) and dried at room temperature overnight. The filter paper was set in a white plastic cup (35 mm in diameter) having one hole on side and one hole in bottom, wherein the diameter of the holes are about 3 mm and termites can easily go through the holes. The white plastic cup was put into the 200 ml-volume plastic cup having several holes on the bottom which was covered with gypsum in 2 cm thickness. Fifty termites (Coptotermes formosanus, workers) were put in the 200 ml-volume plastic cup and kept in the container, the bottom of which was filled with wet cotton wool. The container was covered for keeping wet therein. After one week, the filter paper was recovered, dried well at room temperature, and then the weight was measured. The decreasing ratio of the weight was calculated. The tests were repeated three times. For a reference, filter paper treated with only 1 ml of acetone was tested and the decreasing ratio of the weight was calculated in the same manner.

[2] = tested on: termites (Coptotermes formosanus, workers); assay: Termite antifeeding test on treated Japanese black pine wood (Test Example 1); type: in vivo; conditions: 100 termites, 3 weeks in the dark
Protocol: A designated amount (10 mg or 100 mg) of octyl gallate was dissolved in 0.3 ml of acetone and uniformly spread on a piece of Japanese black pine wood (1 cm×1 cm×2 cm) with pipette. The wood was allowed to stand overnight at room temperature, dried at 60° C. in a thermostat for 3 days, and then the weight of the wood was measured. The bottom of a 200 ml-volume plastic cup having several holes on the bottom was covered with gypsum in 2 cm thickness. The wood prepared above and 100 termites (Coptotermes formosanus, workers) were put in the plastic cup and kept in the dark for 3 weeks. For that time, cotton wool containing water was set under the plastic cup, and the gypsum was kept wet through the hole. After 3 weeks, the wood was recovered, dried at 60° C. in a thermostat for 3 days, and then the weight of the wood was measured. The decreasing ratio of the weight was calculated. For a reference, a piece of Japanese black pine wood treated with only 0.3 ml of acetone was tested and the decreasing ratio of the weight was calculated in the same manner.

SMILES	The decreasing ratio of the weight (%) [1]	The decreasing ratio of the weight (%) ([2]; 10 mg of octyl gallate on Japanese black pine wood (1 cm×1 cm×2 cm))	The decreasing ratio of the weight (%) ([2]; 100 mg of octyl gallate on Japanese black pine wood (1 cm×1 cm×2 cm))
CCCCCCCCCCCCOC(=O)c1cc(O)c(O)c(O)c1 [Dodecyl gallate]	1.13%		
CCCCCCCCOC(=O)c1cc(O)c(O)c(O)c1 [octyl gallate, Octyl gallate]		2.4%	0.9%
CCCCCCCCCCOC(=O)c1cc(O)c(O)c(O)c1 [Decyl gallate, decyl gallate]	0%		
